According to patent publication US10058544B2, “(S)-N-(3-(6-isopropoxypyridin-3-yl)-1H-indazol-5-yl)-1-(2-(4-(4-(1-methyl-1H-1,2,4-triazol-3-yl)phenyl)-3,6-dihydropyridin-1(2H)-yl)-2-oxoethyl)-3-(methylthio)pyrrolidine-3-carboxamide compositions for pharmaceutical preparations” (Merck Sharp & Dohme Corp., priority 2014, dated 2018):
Counter-ions that a name gives are not always drawn.

How the values were obtained:
[1] = Physical form composition of active ingredient in tablets prepared using roller compaction; type: physicochemical
Text: (S)—N-(3-(6-isopropoxypyridin-3-yl)-1H-indazol-5-yl)-1-(2-(4-(4-(1-methyl-1H-1,2,4-triazol-3-yl)phenyl)-3,6-dihydropyridin-1(2H)-yl)-2-oxoethyl)-3-(methylthio)pyrrolidine-3-carboxamide crystalline form 1 HCl was subjected to roller compaction in order to create a granular composition for subsequent use in preparing tablets of (S)—N-(3-(6-isopropoxypyridin-3-yl)-1H-indazol-5-yl)-1-(2-(4-(4-(1-methyl-1H-1,2,4-triazol-3-yl)phenyl)-3,6-dihydropyridin-1(2H)-yl)-2-oxoethyl)-3-(methylthio)pyrrolidine-3-carboxamide crystalline form 1 HCl.
Three tablets (RC-1, RC-2 and RC-3) having the following amounts (weight %) of ingredients were prepared using roller compaction.
The following procedure was followed: • 1. Blend colloidal silicon dioxide and (S)—N-(3-(6-isopropoxypyridin-3-yl)-1H-indazol-5-yl)-1-(2-(4-(4-(1-methyl-1H-1,2,4-triazol-3-yl)phenyl)-3,6-dihydropyridin-1(2H)-yl)-2-oxoethyl)-3-(methylthio)pyrrolidine-3-carboxamide crystalline form 1 HCl in a blender. • 2. Delump the blend using a screen. • 3. Blend lactose monohydrate, microcrystalline cellulose (Avicel 102), and disintegrant (croscarmellose sodium or crospovidone) with the delumped materials from step 2 using a blender. • 4. Add prescreened magnesium stearate lubricant to the blend of step 3 and blend. • 5. Roller compact the blend resulting from step 4 • 6. Screen the roller compacted ribbons through a mesh and add the resulting milled granules to a suitable bin. • 7. Add prescreened extragranular magnesium stearate lubricant to the bin and blend with the milled granules. • 8. Compress the final lubricated blend resulting from step 7 using a suitable rotary tablet press.
(§1) “LOD” refers to “limit of detection” and “<LOD” means the amount of indicated material, if any, was not detectable.

[2] = Physical form composition of active ingredient in tablets prepared using wet granulation; type: physicochemical
Description: Wet granulation of (S)—N-(3-(6-isopropoxypyridin-3-yl)-1H-indazol-5-yl)-1-(2-(4-(4-(1-methyl-1H-1,2,4-triazol-3-yl)phenyl)-3,6-dihydropyridin-1(2H)-yl)-2-oxoethyl)-3-(methylthio)pyrrolidine-3-carboxamide crystalline form 1 HCl was achieved using a high shear granulator. […] was alternatively achieved using a fluidized bed procedure.
Two tablets (1a and 1b) having the following amounts (weight %) of ingredients were prepared using wet granulation.
The following procedure was followed: • 1. Prepare a 20% binder solution by adding purified water and polyvinyl pyrrolidone K30 to a mixing vessel and stir until completely dissolved. • 2. Add lactose, microcrystalline cellulose (Avicel 102), (S)—N-(3-(6-isopropoxypyridin-3-yl)-1H-indazol-5-yl)-1-(2-(4-(4-(1-methyl-1H-1,2,4-triazol-3-yl)phenyl)-3,6-dihydropyridin-1(2H)-yl)-2-oxoethyl)-3-(methylthio)pyrrolidine-3-carboxamide crystalline form 1 HCl and a disintegrant (croscarmellose sodium or crospovidone) to a high shear granulator. • 3. Dry mix the ingredients using an impeller and chopper. • 4. Add the binder solution prepared in step 1 to the high shear granulator using a peristaltic pump and flexible tubing. • 5. Spray the binder solution to form wet granules. Additional mixing without spraying of the binder solution (also known as wet massing) may be used. • 6. Pass the wet granulation through a screen. • 7. Dry the granules using a tray dryer and dry heat. • 8. Pass the dried granules through a screen and add to a bin. • 9. Add extragranular disintegrant (croscarmellose sodium or crospovidone) to the materials in step 8 and blend. • 10. Add prescreened magnesium stearate lubricant to the bin and blend. • 11. Compress the lubricated blend resulting from step 10 using a suitable rotary tablet press. Fluidized Bed Granulation: • 1. Prepare a 20% binder solution by adding purified water and PVP K30 to a mixing vessel and stir until completely dissolved. • 2. Add lactose monohydrate, microcrystalline cellulose, (S)—N-(3-(6-isopropoxypyridin-3-yl)-1H-indazol-5-yl)-1-(2-(4-(4-(1-methyl-1H-1,2,4-triazol-3-yl)phenyl)-3,6-dihydropyridin-1(2H)-yl)-2-oxoethyl)-3-(methylthio)pyrrolidine-3-carboxamide crystalline form 1 HCl and croscarmellose sodium or crospovidone disintegrant to a fluid bed to form a mixture. • 3. Pre-heat the materials of step 2 using fluid air until the target bed temperature reaches 55°-60° C. • 4. Spray the binder solution prepared in step 1 onto the mixture resulting from step 2 to form wet granules. • 5. Fluidize and dry the wet granules resulting from step 4. • 6. Pass the dried granules through a screen and add to a bin • 7. Add extragranular croscarmellose sodium or crospovidone disintegrant to the dried granules and blend. • 8. Add prescreened magnesium stearate lubricant to the blend resulting from step 7 and blend. • 9. Compress the final lubricated blend using a suitable rotary tablet press.
as §1

[3] = share of total active ingredient
[4] = wet granulation tablets, <LOD = not detectable
[5] = wet granulation tablets, share of total active ingredient

SMILES: CS[C@@]1(C(=O)Nc2ccc3[nH]nc(-c4ccc(OC(C)C)nc4)c3c2)CCN(CC(=O)N2CC=C(c3ccc(-c4ncn(C)n4)cc3)CC2)C1 [F-1 HCl, (S)—N-(3-(6-isopropoxypyridin-3-yl)-1H-indazol-5-yl)-1-(2-(4-(4-(1-methyl-1H-1,2,4-triazol-3-yl)phenyl)-3,6-dihydropyridin-1(2H)-yl)-2-oxoethyl)-3-(methylthio)pyrrolidine-3-carboxamide crystalline form 1 HCl]
- F-1 FB (crystalline form 1 free base) amount ([1]; <LOD = not detectable): <LOD
- Am FB (amorphous free base) amount [1, 3]: <LOD
- Am HCl (amorphous HCl) amount [1, 3]: 7%
- F-1 HCl (crystalline form 1 HCl) amount [1, 3]: 92%
- disproportionation of crystalline form 1 HCl ([2]; wet granulation processing (high shear or fluidized bed)): no disproportionation
- Am FB (amorphous free base) amount [2, 4]: LOD
- F-1 FB (crystalline form 1 free base) amount [2, 4]: LOD
- Am HCl (amorphous HCl) amount [2, 5]: 7%
- F-1 HCl (crystalline form 1 HCl) amount [2, 5]: 92%
